Earlier results as cited in US20230027739A1, “ANTIGEN-BINDING AND ANTIGEN D[…]” (Entrada Therapeutics, Inc., priority 2021, published 2023).

Tests used:
[1] = for Amino Acid Hydrophobicity, Eisenberg and Weiss: hydrophobicity scale of Eisenberg and Weiss; for Amino Acid Hydrophobicity, Engleman et al.: hydrophobicity scale of Engleman et al.; for Amino Acid Hydrophobicity, Hoop and Woods: hydrophobicity scale of Hoop and Woods; for Amino Acid Hydrophobicity, Janin: hydrophobicity scale of Janin; for Amino Acid Hydrophobicity, Kyrie and Doolittle: hydrophobicity scale of Kyrie and Doolittle
[2] = for Amino Acid SASA Values, Theoretical: theoretical values as reported by Tien, et al.

SMILES | Amino Acid Hydrophobicity, Eisenberg and Weiss [1] | Amino Acid Hydrophobicity, Engleman et al. [1] | Amino Acid Hydrophobicity, Hoop and Woods [1] | Amino Acid Hydrophobicity, Janin [1] | Amino Acid Hydrophobicity, Kyrie and Doolittle [1] | Amino Acid SASA Values, Miller et al. (1987) [2] [Å^2] | Amino Acid SASA Values, Rose et al. (1985) [2] [Å^2] | Amino Acid SASA Values, Empirical [2] [Å^2] | Amino Acid SASA Values, Theoretical [2] [Å^2]
C[C@H](N)C(=O)O [Ala] | 0.25 | 1.6 | −0.5 | 0.3 | 1.8 | – | – | – | –
C[C@H](N)C(=O)O [Alanine] | – | – | – | – | – | 113.0 | 118.1 | 121.0 | 129.0
N=C(N)NCCC[C@H](N)C(=O)O [Arg] | −1.80 | −12.3 | 3.0 | −1.4 | −4.5 | – | – | – | –
N=C(N)NCCC[C@H](N)C(=O)O [Arginine] | – | – | – | – | – | 241.0 | 256.0 | 265.0 | 274.0
NC(=O)C[C@H](N)C(=O)O [Asn] | −0.64 | −4.8 | 0.2 | −0.5 | −3.5 | – | – | – | –
N[C@@H](CC(=O)O)C(=O)O [Asp] | −0.72 | −9.2 | 3.0 | −0.6 | −3.5 | – | – | – | –
NC(=O)C[C@H](N)C(=O)O [Asparagine] | – | – | – | – | – | 158.0 | 165.5 | 187.0 | 195.0
N[C@@H](CC(=O)O)C(=O)O [Aspartate] | – | – | – | – | – | 151.0 | 158.7 | 187.0 | 193.0
N[C@@H](CS)C(=O)O [Cys] | 0.04 | 2.0 | −1.0 | 0.9 | 2.5 | – | – | – | –
N[C@@H](CS)C(=O)O [Cysteine] | – | – | – | – | – | 140.0 | 146.1 | 148.0 | 167.0
N[C@@H](CCC(=O)O)C(=O)O [Glu] | −0.62 | −8.2 | 3.0 | −0.7 | −3.5 | – | – | – | –
N[C@@H](CCC(=O)O)C(=O)O [Glutamate] | – | – | – | – | – | 183.0 | 186.2 | 214.0 | –
NCC(=O)O [Glycine] | – | – | – | – | – | 85.0 | 88.1 | 97.0 | 104.0
N[C@@H](Cc1c[nH]cn1)C(=O)O [His] | −0.40 | −3.0 | −0.5 | −0.1 | −3.2 | – | – | – | –
N[C@@H](Cc1c[nH]cn1)C(=O)O [Histidine] | – | – | – | – | – | 194.0 | 202.5 | 216.0 | 224.0
CC[C@H](C)[C@H](N)C(=O)O [Isoleucine] | – | – | – | – | – | 182.0 | 181.0 | 195.0 | 197.0
NCCCC[C@H](N)C(=O)O [Lys] | −1.10 | −8.8 | 3.0 | −1.8 | −3.9 | – | – | – | –

SMILES | Amino Acid Hydrophobicity, Eisenberg and Weiss [1] | Amino Acid Hydrophobicity, Engleman et al. [1] | Amino Acid Hydrophobicity, Hoop and Woods [1] | Amino Acid Hydrophobicity, Janin [1] | Amino Acid Hydrophobicity, Kyrie and Doolittle [1] | Amino Acid SASA Values, Miller et al. (1987) [2] [Å^2] | Amino Acid SASA Values, Rose et al. (1985) [2] [Å^2] | Amino Acid SASA Values, Empirical [2] [Å^2] | Amino Acid SASA Values, Theoretical [2] [Å^2]
NCCCC[C@H](N)C(=O)O [Lysine] | – | – | – | – | – | 211.0 | 225.8 | 230.0 | 236.0
CSCC[C@H](N)C(=O)O [Met] | 0.26 | 3.4 | −1.3 | 0.4 | 1.9 | – | – | – | –
CSCC[C@H](N)C(=O)O [Methionine] | – | – | – | – | – | 204.0 | 203.4 | 203.0 | 224.0
N[C@@H](Cc1ccccc1)C(=O)O [Phe] | 0.61 | 3.7 | −2.5 | 0.5 | 2.8 | – | – | – | –
N[C@@H](Cc1ccccc1)C(=O)O [Phenylalanine] | – | – | – | – | – | 218.0 | 222.8 | 228.0 | 240.0
O=C(O)[C@@H]1CCCN1 [Proline] | – | – | – | – | – | 143.0 | 146.8 | 154.0 | –
N[C@@H](CO)C(=O)O [Ser] | −0.26 | 0.6 | 0.3 | −0.1 | −0.8 | – | – | – | –
N[C@@H](CO)C(=O)O [Serine] | – | – | – | – | – | 122.0 | 129.8 | 143.0 | 155.0
C[C@@H](O)[C@H](N)C(=O)O [Thr] | −0.18 | 1.2 | −0.4 | −0.2 | −0.7 | – | – | – | –
C[C@@H](O)[C@H](N)C(=O)O [Threonine] | – | – | – | – | – | 146.0 | 152.5 | 163.0 | 172.0
N[C@@H](Cc1c[nH]c2ccccc12)C(=O)O [Trp] | 0.37 | 1.9 | −3.4 | 0.3 | −0.9 | – | – | – | –
N[C@@H](Cc1c[nH]c2ccccc12)C(=O)O [Tryptophan] | – | – | – | – | – | 259.0 | 266.3 | 264.0 | 285.0
N[C@@H](Cc1ccc(O)cc1)C(=O)O [Tyr] | 0.02 | −0.7 | −2.3 | −0.4 | −1.3 | – | – | – | –
N[C@@H](Cc1ccc(O)cc1)C(=O)O [Tyrosine] | – | – | – | – | – | 229.0 | 236.8 | 255.0 | 263.0
CC(C)[C@H](N)C(=O)O [Val] | 0.54 | 2.6 | −1.5 | 0.6 | 4.2 | – | – | – | –
CC(C)[C@H](N)C(=O)O [Valine] | – | – | – | – | – | 160.0 | 164.5 | 165.0 | 174.0
